# Results published in patent US9133187B2, “Serine/threonine kinase inhibitors” (ARRAY BIOPHARMA INC., priority 2011, dated 2015).
# Structures can show the parent of a compound that is named as a salt.
# Key:
# [1] = molecular target: human ERK-2 (Mitogen Activated Kinase 1) (Homo sapiens (Human), UniProt P28482); assay: ERK-2 Enzymatic Assay; format: biochemical; conditions: 5 nM ERK-2, 25 μM ATP, Omnia peptide S/T17; read-out: ERK Inhibition IC50
# Description: Compounds were tested in an enzymatic assay using human ERK-2 (Mitogen Activated Kinase 1), recombinantly expressed as an n-terminal 6-His fusion protein in E. coli and corresponding to aa 8-360. The substrate used was the fluorescent Omnia peptide S/T17 (Invitrogen of Carlsbad, Calif.; Cat. KNZ1171C). Test compounds were diluted in DMSO in 3-fold serial dilutions at 100× final concentrations. […] The assay was run at ambient temperature in a white 384-well polypropylene plate (Nunc, Inc of Naperville, Ill.; Cat. 267462) collecting data every 50 seconds for approximately 30 minutes on an Envision plate reader (PerkinElmer, Inc. of Waltham, Mass.); Excitation 340 nm/Emission 495 nm. The data collected from each well was fit to a straight line and the resulting rates were used to calculate percent of control. Percent of control was plotted against compound concentration and IC50 values were determined using a four-parameter fit.
# [2] = system: PMA-stimulated P90RSK(Ser380) phosphorylation in HepG2 cells; assay: Cellular P90RSK(Ser380) Phosphorylation Assay; format: cell-based; conditions: Homo sapiens, 1.5 h compound incubation, PMA stimulation, pP90RSK(Ser380) normalized to GAPDH, read-out: Cell Assay IC50
# Description: Inhibition of PMA-stimulated P90RSK(Ser380) phosphorylation was determined by the following in vitro cellular mechanistic assay, which comprises incubating cells with a compound for 1.5 hours and quantifying fluorescent pP90RSK(Ser380) signal on fixed cells and normalizing to GAPDH signal.
# Materials and Methods: HepG2 cells were obtained from ATCC and grown in DMEM supplemented with 10% fetal bovine serum. Cells were plated in 96-well plates at 35,000 cells/well and allowed to attach overnight at 37° C./5% CO2. Diluted compounds were then added at a final concentration of 0.5% DMSO. After 1.5 hour compound incubation, cells were stimulated with the addition of PMA (phorbol 12-myristate 13-acetate) at a final concentration of 100 ng/mL; the PMA stimulation was a 30-minute incubation at 37° C./5% CO2. After the 30-minute PMA stimulation, cells were washed with PBS and fixed in 3.7% formaldehyde in PBS at room temperature for 15-20 minutes. This was followed by another wash in PBS and then permeabilization in 100% MeOH at room temperature for 10-15 minutes. Following the permeabilization incubation, cells were washed in PBS/0.05% Tween-20, followed by a block in Odyssey blocking buffer (LI-COR Biosciences) for at least 1 hour. Antibodies to phosphorylated P90RSK(Ser380) (Cell Signaling #9335, rabbit monoclonal) and GAPDH (Fitzgerald 10R-G109a, mouse monoclonal) were added to the cells and incubated overnight at 4° C. pP90RSK(Ser380) antibody was used at a 1:250 dilution; GAPDH was used at a 1:10,000 dilution. After washing with PBS/0.05% Tween-20, the cells were incubated with fluorescently-labeled secondary antibodies (Anti-rabbit-Alexa Flour680, Invitrogen Cat#A21109; Anti-mouse-IRDye800CW, Rockland Inc. Cat#610-131-121) for 1 hour. Both secondary antibodies were used at a 1:1000 dilution. Cells were then washed and analyzed for fluorescence at both wavelengths using the Odyssey Infrared Imaging System (LI-COR Biosciences). Phosphorylated P90RSK(Ser380) signal was normalized to GAPDH signal. Representative date is in TABLE III (infra).
# Sequence of human ERK-2 (Mitogen Activated Kinase 1) (P28482 8-360): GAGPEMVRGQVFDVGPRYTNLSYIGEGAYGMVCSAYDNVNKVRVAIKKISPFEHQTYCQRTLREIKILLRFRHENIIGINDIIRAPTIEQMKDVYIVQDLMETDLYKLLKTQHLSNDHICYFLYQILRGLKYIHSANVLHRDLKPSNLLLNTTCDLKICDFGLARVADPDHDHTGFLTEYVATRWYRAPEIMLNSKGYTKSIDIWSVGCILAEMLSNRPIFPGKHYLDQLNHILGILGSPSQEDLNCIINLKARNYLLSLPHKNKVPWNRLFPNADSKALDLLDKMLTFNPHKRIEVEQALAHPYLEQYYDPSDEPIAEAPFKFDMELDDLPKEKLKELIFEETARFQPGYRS
IC50 [1] [nM],Structure (SMILES),IC50 [2] [nM]
3.3,"CC(CF)Nc1ncc2c(n1)CN(C(=O)N[C@H](CO)c1ccc(Cl)c(Cl)c1)CC2 (stereo partly drawn) [Compound I-60, N—((S)-1-(3,4-dichlorophenyl)-2-hydroxyethyl)-2-(1-fluoropropan-2-ylamino)-5,6-dihydropyrido[3,4-d]pyrimidine-7(8H)-carboxamide]",100
2.9,"CC(C)Nc1ncc2c(n1)CN(C(=O)N[C@@H](c1ccc(Cl)c(Cl)c1)[C@H]1CCCN1C)CC2 [Compound I-61, N—((S)-(3,4-dichlorophenyl)((R)-1-methylpyrrolidin-2-yl)methyl)-2-(isopropylamino)-5,6-dihydropyrido[3,4-d]pyrimidine-7(8H)-carboxamide]",93
2.4,"CC(C)Nc1ncc2c(n1)CN(C(=O)N[C@@H](c1ccc(Cl)c(Cl)c1)[C@H](O)CO)CC2 [Compound I-62, N-((1S,2S)-1-(3,4-dichlorophenyl)-2,3-dihydroxypropyl)-2-(isopropylamino)-5,6-dihydropyrido[3,4-d]pyrimidine-7(8H)-carboxamide]",109
4.1,"CNC[C@@H](NC(=O)N1CCc2cnc(NC(C)C)nc2C1)c1ccc(C(F)(F)F)c(F)c1 [Compound I-66, (S)—N-(1-(3-fluoro-4-(trifluoromethyl)phenyl)-2-(methylamino)ethyl)-2-(isopropylamino)-5,6-dihydropyrido[3,4-d]pyrimidine-7(8H)-carboxamide hydrochloride]",132
5.6,"C[C@@H](NC(=O)N1CCc2cnc(NC(CO)CO)nc2C1)c1ccc(Cl)c(Cl)c1 [Compound I-75, (R)—N-(1-(3,4-dichlorophenyl)ethyl)-2-(1,3-dihydroxypropan-2-ylamino)-5,6-dihydropyrido[3,4-d]pyrimidine-7(8H)-carboxamide]",314
195,"CC(=O)N1CCC[C@H]1[C@@H](NC(=O)N1CCc2cnc(NC(C)C)nc2C1)c1ccc(Cl)c(F)c1 [Compound I-87, N—((S)—((S)-1-acetylpyrrolidin-2-yl)(4-chloro-3-fluorophenyl)methyl)-2-(isopropylamino)-5,6-dihydropyrido[3,4-d]pyrimidine-7(8H)-carboxamide]",5100
1.8,"CC(C)Nc1ncc2c(n1)CN(C(=O)N[C@H](CCN)c1ccc(C(F)(F)F)cc1)CC2 [Compound I-119, (R)—N-(3-amino-1-(4-(trifluoromethyl)phenyl)propyl)-2-(isopropylamino)-5,6-dihydropyrido[3,4-d]pyrimidine-7(8H)-carboxamide]",694
1.9,"CC(C)Nc1ncc2c(n1)CN(C(=O)N[C@H](CN)c1ccc(F)c(Cl)c1)CC2 [II-7, 2-Isopropylamino-5,8-dihydro-6H-pyrido[3,4-d]pyrimidine-7-carboxylic acid [(S)-2-amino-1-(3-chloro-4-fluoro-phenyl)-ethyl]-amide]",50000

# Second part, the compound before the results:
Structure (SMILES),IC50 [1] [nM],IC50 [2] [nM]
"COCC(=O)OC[C@@H](NC(=O)N1CCc2cnc(NC3CCOCC3)nc2C1)c1ccc(F)c(Cl)c1 [Compound I-56, (S)-2-(3-chloro-4-fluorophenyl)-2-(2-(tetrahydro-2H-pyran-4-ylamino)-5,6,7,8-tetrahydropyrido[3,4-d]pyrimidine-7-carboxamido)ethyl 2-methoxyacetate]",5.3,66.2
"N#CC[C@@H](NC(=O)N1CCc2cnc(NC3CCOCC3)nc2C1)c1ccc(F)c(Cl)c1 [Compound I-59, (R)—N-(1-(3-chloro-4-fluorophenyl)-2-cyanoethyl)-2-(tetrahydro-2H-pyran-4-ylamino)-5,6-dihydropyrido[3,4-d]pyrimidine-7(8H)-carboxamide]",0.6,85.5
"CNC[C@@H](NC(=O)N1CCc2cnc(Nc3ccc(F)cc3)nc2C1)c1ccc(C(F)(F)F)c(F)c1 [Compound I-68, (S)—N-(1-(3-fluoro-4-(trifluoromethyl)phenyl)-2-(methylamino)ethyl)-2-(4-fluorophenylamino)-5,6-dihydropyrido[3,4-d]pyrimidine-7(8H)-carboxamide hydrochloride]",2.3,146
COC[C@@H](NC(=O)N1CCc2cnc(NCCO)nc2C1)c1ccc(Cl)c(Cl)c1 [Compound I-73],9.8,241
"C[C@@H](NC(=O)N1CCc2cnc(NC3CCN(C)CC3)nc2C1)c1ccc(Cl)c(Cl)c1 [Compound I-83, (R)—N-(1-(3,4-dichlorophenyl)ethyl)-2-(1-methylpiperidin-4-ylamino)-5,6-dihydropyrido[3,4-d]pyrimidine-7(8H)-carboxamide]",113,2500
"CC1(C)CC[C@@H]([C@@H](NC(=O)N2CCc3cnc(NC4CCOCC4)nc3C2)c2ccc(C(F)(F)F)cc2F)N1 [Compound I-86, N—((S)—((S)-5,5-dimethylpyrrolidin-2-yl)(2-fluoro-4-(trifluoromethyl)phenyl)methyl)-2-(tetrahydro-2H-pyran-4-ylamino)-5,6-dihydropyrido[3,4-d]pyrimidine-7(8H)-carboxamide]",148,3600
"C[C@@H](CO)Nc1ncc2c(n1)CN(C(=O)NCc1ccc(Cl)c(Cl)c1)CC2 [Compound I-90, (S)—N-(3,4-dichlorobenzyl)-2-(1-hydroxypropan-2-ylamino)-5,6-dihydropyrido[3,4-d]pyrimidine-7(8H)-carboxamide]",2.1,103
"CC(C)Nc1ncc2c(n1)CN(C(=O)NC1(c3ccc(Cl)c(Cl)c3)CCNCC1)CC2 [Compound I-93, N-(4-(3,4-dichlorophenyl)piperidin-4-yl)-2-(isopropylamino)-5,6-dihydropyrido[3,4-d]pyrimidine-7(8H)-carboxamide]",3.8,6200
"CS(=O)(=O)CC[C@@H](NC(=O)N1CCc2cnc(NC3CCOCC3)nc2C1)c1ccc(Cl)c(Cl)c1 [Compound I-105, (R)—N-(1-(3,4-dichlorophenyl)-3-(methylsulfonyl)propyl)-2-(tetrahydro-2H-pyran-4-ylamino)-5,6-dihydropyrido[3,4-d]pyrimidine-7(8H)-carboxamide]",2.6,101
"CC(NC(=O)N1CCc2cnc(NC3CCOCC3)nc2C1)c1ccc2cc[nH]c2c1 (centres unmarked) [Compound I-107, N-(1-(1H-indol-6-yl)ethyl)-2-(tetrahydro-2H-pyran-4-ylamino)-5,6-dihydropyrido[3,4-d]pyrimidine-7(8H)-carboxamide]",2.7,30
"C[C@@H](CO)Nc1ncc2c(n1)CN(C(=O)NCc1cnc(C(F)(F)F)nc1)CC2 [Compound I-109, 2-((S)-2-Hydroxy-1-methyl-ethylamino)-5,8-dihydro-6H-pyrido[3,4-d]pyrimidine-7-carboxylic acid (2-trifluoromethyl-pyrimidin-5-ylmethyl)-amide]",92.7,3300
"O=C(N1CCc2cnc(NC3CCOCC3)nc2C1)N1CCC[C@H]1c1ccccc1 [Compound I-130, (S)-(2-phenylpyrrolidin-1-yl)(2-(tetrahydro-2H-pyran-4-ylamino)-5,6-dihydropyrido[3,4-d]pyrimidin-7(8H)-yl)methanone]",123,10000
"O=C(N1CCc2cnc(NC3CCOCC3)nc2C1)N1CCCC1c1ccc(F)cc1 (centres unmarked) [Compound I-134, (2-(4-fluorophenyl)pyrrolidin-1-yl)(2-(tetrahydro-2H-pyran-4-ylamino)-5,6-dihydropyrido[3,4-d]pyrimidin-7(8H)-yl)methanone]",20.4,1200
"Cc1cccc(CCNc2ncc3c(n2)CN(C(=O)N[C@H](CO)c2ccc(F)c(Cl)c2)CC3)n1 [II-10, 2-[2-(6-Methyl-pyridin-2-yl)-ethylamino]-5,8-dihydro-6H-pyrido[3,4-d]pyrimidine-7-carboxylic acid [(S)-1-(3-chloro-4-fluoro-phenyl)-2-hydroxy-ethyl]-amide]",61,20800
